Test results: patent publication US10993935B2, “Compositions and methods for treatment of lung infections” (priority 2018, dated 2021)

Experiments:
[1] = Particle (droplet) size analysis of aerosol drugs; format: physicochemical; conditions: 60 mg/mL; TOB in 0.225% saline, RFX in 100% DMSO; nebulizer aerosol, Malvern Spraytec
Method: Particle Size Analysis of Aerosol Drugs. Droplet size analysis of drugs used for aerosol therapy was conducted by Spray Analytics (Lincolnshire, Ill.). Samples of TOB in 0.225% saline and RFX in 100% DMSO at concentrations of 60 mg/mL for both were prepared and submitted along with nebulizer unit used for animal experiments. A Malvern Spraytec was used for analysis with the tested product sprayed horizontally at less than 5 cm from the detector beam. The samples were measured in triplicates for 20-30 seconds of stable operation of the nebulizer. Refractive index and absorption values used were that of DMSO for RFX and water for TOB.
The potential adverse effects of using DMSO were first assessed by nebulizing DMSO alone to a group of C57BL/6 mice (n=8). This type of mice was used due to their natural resistance against infection based on our previous studies. […] Next, the delivery of both RFX and TOB via nebulization was optimized. […] To determine the dosage of each drug received by the mice, the lungs were homogenized and drug concentrations of TOB and RFX were determined via ELISA and HPLC, respectively. […] The droplet size for both TOB and RFX were determined to be identical with the average droplet size for TOB and RFX being 5.07 μm and 5.02 μm, respectively.

[2] = test system: P. aeruginosa PAO1; assay: Murine pneumonia model, single-dose treatment, survival; format: in vivo, DBA/2 mice; conditions: 12 mice per group
Method: Kaplan-Meier curves showing percent survival of DBA/2 mice with P. aeruginosa PAO1 infection after treatment with RFX or TOB at 0 h post-infection (FIG. 5A), 6 h post-infection (FIG. 5B), and 12 h post-infection (FIG. 5C). Data shown represent means of 12 mice per group. The Mantel-Cox test was used with significance set at a P value of <0.01 and showing standard error (SE) bars.
Murine Pneumonia Model Treatment. TOB or RFX were used to treat P. aeruginosa respiratory infection in a DBA/2 mouse model established previously. Lung infection was induced by a single exposure to a total of 84 male DBA/2 mice of 8 week old (Charles River Laboratories) to P. aeruginosa PAO1 aerosols, which was prepared as previously reported. Immediately after infection, the mice were separated into seven groups (n=12 per group): 1) control with no treatment, 2) treatment with 300 mg TOB immediately after infection, 3) treatment with 300 mg RFX immediately after infection, 4) treatment with 300 mg TOB 6 h after infection, 5) treatment with 300 mg RFX 6 h after infection, 6) treatment with 300 mg TOB 12 h after infection, or 7) treatment with 300 mg RFX 12 h after infection. Each experimental group was treated with TOB or RFX with a control group treated with PBS following the nebulization protocol as described above. The mice were monitored for survival at 12 hour intervals for 72 hours and then at 24 hour intervals for 6 weeks.
After establishing the dosing of TOB or RFX to efficiently reach the lungs, the efficacy of both drugs against P. aeruginosa lung infections was compared using an established mouse model. DBA/2 (n=84) male mice were first infected with aerosolized P. aeruginosa PAO1 in a whole-body exposure chamber as previously described. The mice were then separated into four groups. One group was left untreated to determine the rate of mortality (control). The remaining three groups were treated with RFX or TOB using a pressure-based nebulizer and whole-body exposure chamber at a concentration of 300 mg at 0 h, 6 h, or 12 h post infection. All control mice died within 5 days (FIGS. 5A-5C), consistent with what was previously reported. […] In the 12 h treatment group, 83% of mice treated with RFX survived, while only 50% of mice treated with TOB survived (FIG. 5C).

[3] = test system: P. aeruginosa strains; assay: MIC and synergy testing (checkerboard/isobologram) of RFX and TOB; format: cell-based, Pseudomonas aeruginosa; conditions: for MIC RFX: RFX alone; for MIC RFX in Combination: in combination with TOB; for MIC TOB: TOB alone; for MIC TOB in Combination: in combination with RFX
Method: Minimum Inhibitory Concentration Testing. MIC testing was performed as previously described. Briefly, overnight culture of bacteria was diluted in 1:100 of a 0.5 McFarland standard as inoculum. The same number of cells was grown in LB broth containing serial, two-fold dilutions of rifaximin (RFX) or tobramycin (TOB). Growth was measured via optical density (OD) at 600 nm after 24 h incubation at 37° C. Concentrations of antibiotic required for inhibition of 50% and 90% of strains were determined.
Synergy Testing. Synergistic potential of RFX and TOB was performed by isobologram (checkerboard) analysis in 96-well plate format Briefly, PIB containing serial dilutions of each drug were plated in 64 wells of a 96-well plate with one drug vertically plated and the other horizontally plated. Bacterial cells of P. aeruginosa were grown 4 to 6 hours to an early log phase and then added to the wells of the plate. Growth in the wells was measured via OD at 600 nm after 24 h incubation at 37° C. The MIC and Fractional Inhibition Concentration (FIC) were calculated to determine synergism, antagonism or additivity between the tested strains of P. aeruginosa: PAO1, PAO581, PAO581 isogenic mutant, CF001, and CF010. The summative ΣFTC was calculated from the FICs and interpreted according to the standard index values: synergy ≤0.5; indifferent 0.5< to ≤4; antagonism >4. […]

[4] = 300 mg nebulized at 0 h after infection
[5] = 300 mg nebulized at 6 h post infection
[6] = 300 mg nebulized at 12 h post infection

CO[C@H]1/C=C/O[C@@]2(C)Oc3c(C)c(O)c4c(O)c(c5c(nc6cc(C)ccn65)c4c3C2=O)NC(=O)/C(C)=C\C=C\[C@H](C)[C@H](O)[C@@H](C)[C@@H](O)[C@@H](C)[C@H](OC(C)=O)[C@@H]1C [RFX, rifaximin]
average droplet size [1]: 5.02 μm | survival [2, 4]: 100% | survival [2, 5]: 92% | survival [2, 6]: 83% | FIC RFX ([3]; strain CF001, M): 0.25 | MIC RFX ([3]; strain CF001, M): 16 | MIC RFX in Combination ([3]; strain CF001, M): 4 | MIC RFX ([3]; strain CF003, NM): 4 | FIC RFX ([3]; strain CF010, M): 0.25 | MIC RFX ([3]; strain CF010, M): 8 | MIC RFX in Combination ([3]; strain CF010, M): 2 | FIC RFX ([3]; strain PAO1, NM): 0.25 | MIC RFX ([3]; strain PAO1, NM (non-mucoid)): 16 | MIC RFX in Combination ([3]; strain PAO1, NM): 4 | FIC RFX ([3]; strain PAO581, M): 0.25 | MIC RFX ([3]; strain PAO581, M (mucoid)): 16 | MIC RFX in Combination ([3]; strain PAO581, M): 4 | FIC RFX ([3]; strain PAO581 NM revertant): 0.25 | MIC RFX ([3]; strain PAO581 NM revertant): 16 | MIC RFX in Combination ([3]; strain PAO581 NM revertant): 4

NC[C@H]1O[C@H](O[C@H]2[C@H](O)[C@@H](O[C@H]3O[C@H](CO)[C@@H](O)[C@H](N)[C@H]3O)[C@H](N)C[C@@H]2N)[C@H](N)C[C@@H]1O [TOB, tobramycin]
average droplet size [1]: 5.07 μm | survival [2, 4]: 92% | survival [2, 5]: 58% | survival [2, 6]: 50% | FIC TOB ([3]; strain CF001, M): 0.25 | MIC TOB ([3]; strain CF001, M): 2 | MIC TOB in Combination ([3]; strain CF001, M): 0.5 | MIC TOB ([3]; strain CF003, NM): 2 | MIC TOB in Combination ([3]; strain CF003, NM): 0.25 | FIC TOB ([3]; strain CF010, M): 0.25 | MIC TOB ([3]; strain CF010, M): 2 | MIC TOB in Combination ([3]; strain CF010, M): 0.5 | FIC TOB ([3]; strain PAO1, NM): 0.125 | MIC TOB ([3]; strain PAO1, NM): 2 | MIC TOB in Combination ([3]; strain PAO1, NM): 0.25 | FIC TOB ([3]; strain PAO581, M): 0.25 | MIC TOB ([3]; strain PAO581, M): 2 | MIC TOB in Combination ([3]; strain PAO581, M): 0.5 | FIC TOB ([3]; strain PAO581 NM revertant): 0.25 | MIC TOB ([3]; strain PAO581 NM revertant): 2 | MIC TOB in Combination ([3]; strain PAO581 NM revertant): 0.5
